Source: patent US10421754B2, “Quinazoline derivative” (CSPC ZHONGQI PHARMACEUTICAL TECHNOLOGY (SHIJIAZHUANG) CO., …, priority 2014, dated 2019)
pIC50: −log10 of the molar value.

Legend:
HCC827 = test: In vitro cell experiment (MTT), HCC827; format: cell-based; settings: 72 h, human non-small cell lung carcinoma (EGFR1 19 exon mutation)
Outline: (§1)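 Absorbance at 550 nm after DMSO dissolution of MTT formazan gave inhibition rates, from which IC50 values were fitted by the LOGIT method.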

A431 = test: In vitro cell experiment (MTT), A431; format: cell-based; settings: A-431, 72 h, human epidermoid carcinoma (EGFR1 overexpressing)
Description: (§2) Cells in logarithmic growth phase were seeded at a certain density in a 96-well plate (200 μL/well). The cells were allowed to grow for 24 h and subsequently treated with different concentrations of drugs (including a blank group and a control group) and incubated for 72 h at 37° C. Each concentration in a given experiment was tested in triplicate. After 72 h of exposure, 20 μL of the MTT labeling reagent was added to the medium (the final concentration of MTT was 0.5 mg/mL), and the cells were incubated for additional 4 h at 37° C. Following this process, 180 μL of the medium was removed and 130 μL of DMSO was added to each well, or the medium was completely removed and 150 μL of DMSO was added to each well. Then the plate was shaken and mixed in a micro-oscillator. Finally the optical density (OD) of each sample was measured in a micro-plate reader at 550 nm. Cell inhibition rate was calculated according to the following formula: […]
(§3) According to cell inhibition rates, IC50 was calculated by LOGIT method. The experiments were repeated twice and the data was expressed as means±SD.

H292 = test: In vitro cell experiment (MTT), H292; format: cell-based; settings: NCI-H292, 72 h, human lung carcinoma cells (EGFR1 overexpressing)
Outline: as §1

PC-9 = test: In vitro cell experiment (MTT), PC-9; format: cell-based; settings: 72 h, human non-small-cell lung carcinoma cells (EGFR1 19 exon mutation)
Description: as §2, §3

A375 = test: In vitro cell experiment (MTT), A375; format: cell-based; settings: A-375, 72 h, human melanoma cells (KDR expressing)
Description: as §2, §3

HT-29 = test: In vitro cell experiment (MTT), HT-29; format: cell-based; settings: 72 h, human colon carcinoma cells (expressing both c-KIT and PDGFR)
Description: as §2, §3

TT = test: In vitro cell experiment (MTT), TT; format: cell-based; settings: 72 h, human thyroid carcinoma cells (RET C634W mutation)
Description: as §2, §3

HCT116 = test: In vitro cell experiment (MTT), HCT116; format: cell-based; settings: HCT-116, 72 h, human colon carcinoma cells
Outline: as §1

SK-OV-3 = test: In vitro cell experiment (MTT), SK-OV-3; format: cell-based; settings: 72 h, human ovarian carcinoma cells (EGFR2 overexpressing)
Outline: as §1

A549 = test: In vitro cell experiment (MTT), A549; format: cell-based; settings: 72 h, human non-small-cell lung carcinoma cells (EGFR1 wildtype)
Outline: as §1

3T3swiss = test: In vitro cell experiment (MTT), 3T3swiss; format: cell-based; settings: Fibroblast, 72 h, mouse fibroblasts (PDGFR overexpressing)
Description: as §2, §3

HUVEC = test: In vitro cell experiment (MTT), HUVEC; format: cell-based; settings: 72 h, human umbilical vein endothelial cell (KDR overexpressing)
Description: as §2, §3

Bel-7402 = test: In vitro cell experiment (MTT), Bel-7402; format: cell-based; settings: 72 h, human hepatoma carcinoma cells
Description: as §2, §3

SGC7901 = test: In vitro cell experiment (MTT), SGC7901; format: cell-based; settings: SGC-7901, 72 h, human gastric carcinoma cells
Description: as §2, §3

CFPAC-1 = test: In vitro cell experiment (MTT), CFPAC-1; format: cell-based; settings: 72 h, human pancreatic carcinoma cells
Description: as §2, §3

A498 = test: In vitro cell experiment (MTT), A498; format: cell-based; settings: 72 h, human renal carcinoma cells
Description: as §2, §3

Eca109 = test: In vitro cell experiment (MTT), Eca109; format: cell-based; settings: ECa-109, 72 h, human esophageal carcinoma cells
Description: as §2, §3

RET = RET (Homo sapiens, UniProt P07949); test: In vitro enzyme experiment (ELISA), RET; format: biochemical; settings: Poly (Glu, Tyr)4:1 substrate, 5 μM ATP
Description: RET: A receptor involved in thyroid cancer
(§4) ELISA: The enzyme plate was coated by enzyme reaction substrate (Poly (Glu, Tyr)4:1) at a density of 20 μg/ml. Then the enzyme, the sample and 5 μM ATP were mixed in the well to react. After the reaction, the substrate phosphorylation was detected by anti-phosphotyrosine monoclonal antibody (4G10). In the next step, the goat-anti-mouse IgG linking with horse radish peroxidase (HRP) and tetramethylbenzidine (TMB) were added sequentially in the well to evaluate the level of substrate phosphorylation by the degree of color depth. In the experiment, a blank group without tyrosine kinase and a control group with the corresponding concentration of DMSO were established. Finally, 50 μL/well of H2SO4 at a concentration of 0.18M was added in each well to stop the reaction. The optical density (OD) of each sample was measured in a micro-plate reader at 450 nm.
(§5) The relative inhibition rate of the compound against tyrosine kinase protein was determined.
(§6) According to the inhibition rates at different concentrations, IC50 was calculated by LOGIT method. The experiments were repeated three times, and the average of three IC50 values was the final index to evaluate the ability of inhibition.

KDR = KDR (Homo sapiens, UniProt P35968); test: In vitro enzyme experiment (ELISA), KDR; format: biochemical; settings: Poly (Glu, Tyr)4:1 substrate, 5 μM ATP
Description: KDR: Human vascular endothelial growth factor receptor 2
as §4, §5, §6

FLT-1 = FLT-1 (Homo sapiens, UniProt P17948); test: In vitro enzyme experiment (ELISA), FLT-1; format: biochemical; settings: Poly (Glu, Tyr)4:1 substrate, 5 μM ATP
Description: FLT-1: Human vascular endothelial growth factor receptor 1
as §4, §5, §6

FGFR-1 = FGFR-1 (Homo sapiens, UniProt P11362); test: In vitro enzyme experiment (ELISA), FGFR-1; format: biochemical; settings: Poly (Glu, Tyr)4:1 substrate, 5 μM ATP
Description: FGFR-1: Fibroblast growth factor receptor 1
as §4, §5, §6

EGFR = EGFR (Homo sapiens, UniProt P00533); test: In vitro enzyme experiment (ELISA), EGFR; format: biochemical; settings: Poly (Glu, Tyr)4:1 substrate, 5 μM ATP
Description: EGFR: Human epidermal growth factor receptor 1
as §4, §5, §6

PDGFRβ = PDGFRβ (Homo sapiens, UniProt P09619); test: In vitro enzyme experiment (ELISA), PDGFRβ; format: biochemical; settings: Poly (Glu, Tyr)4:1 substrate, 5 μM ATP
Description: PDGFRβ: Platelet-derived growth factor receptor β
as §4, §5, §6

BTK = BTK (Homo sapiens, UniProt Q06187); test: In vitro enzyme experiment (ELISA), BTK; format: biochemical; settings: Poly (Glu, Tyr)4:1 substrate, 5 μM ATP
Description: BTK: Bruton tyrosine kinase
as §4, §5, §6

AXL = AXL (Homo sapiens, UniProt P30530); test: In vitro enzyme experiment (ELISA), AXL; format: biochemical; settings: Poly (Glu, Tyr)4:1 substrate, 5 μM ATP
Description: as §4, with “AXL: Anaplastic lymphoma kinase Methods: ELISA:” for “ELISA:”, “nm. The relative inhibition rate of the compound against tyrosine kinase protein was determined. According to the inhibition rates at different concentrations, IC50 was calculated by LOGIT method. The experiments were repeated three times, and the average of three IC50 values was the final index to evaluate the ability of inhibition.” for “nm.”

[1] = Mouse maximum tolerated dose (MTD) experiment; settings: in vivo, mice, oral, administered 7 days then observed 7 days
Outline: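 Oral dosing for 7 days at twofold-spaced levels from 31.25 up to 1000 mg/kg, three randomized, weight-matched healthy mice per level. Animals were then watched for a further 7 drug-free days.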

Sequence of PDGFRβ (P09619 33-1106, species assumed): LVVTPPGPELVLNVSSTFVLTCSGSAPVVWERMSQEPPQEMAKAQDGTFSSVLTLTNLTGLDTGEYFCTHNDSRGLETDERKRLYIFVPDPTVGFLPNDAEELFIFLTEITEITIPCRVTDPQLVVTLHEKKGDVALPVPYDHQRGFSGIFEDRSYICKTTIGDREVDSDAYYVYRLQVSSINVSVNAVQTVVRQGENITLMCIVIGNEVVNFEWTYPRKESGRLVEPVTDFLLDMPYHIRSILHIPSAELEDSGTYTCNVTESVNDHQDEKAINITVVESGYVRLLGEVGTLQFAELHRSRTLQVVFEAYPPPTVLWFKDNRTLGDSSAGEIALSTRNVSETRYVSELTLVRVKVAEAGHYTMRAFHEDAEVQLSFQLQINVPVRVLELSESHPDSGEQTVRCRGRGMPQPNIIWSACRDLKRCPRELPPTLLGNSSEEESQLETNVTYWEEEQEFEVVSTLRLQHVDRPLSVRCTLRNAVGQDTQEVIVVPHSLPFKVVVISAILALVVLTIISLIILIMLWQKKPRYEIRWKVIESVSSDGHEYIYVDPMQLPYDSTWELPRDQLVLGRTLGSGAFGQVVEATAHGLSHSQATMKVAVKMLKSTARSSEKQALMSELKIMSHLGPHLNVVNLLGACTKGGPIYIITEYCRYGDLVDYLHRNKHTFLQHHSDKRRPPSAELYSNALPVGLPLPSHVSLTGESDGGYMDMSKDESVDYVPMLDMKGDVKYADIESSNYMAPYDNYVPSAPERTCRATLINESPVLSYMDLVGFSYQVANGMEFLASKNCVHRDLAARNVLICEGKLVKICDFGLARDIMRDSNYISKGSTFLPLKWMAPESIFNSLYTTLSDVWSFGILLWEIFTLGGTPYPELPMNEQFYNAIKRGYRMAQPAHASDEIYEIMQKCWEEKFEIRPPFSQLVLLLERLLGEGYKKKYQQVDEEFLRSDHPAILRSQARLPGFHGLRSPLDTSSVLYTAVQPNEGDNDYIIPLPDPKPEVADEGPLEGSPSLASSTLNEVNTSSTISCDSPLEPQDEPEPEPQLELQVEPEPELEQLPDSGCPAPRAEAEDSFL
Sequence of KDR (P35968 20-1356): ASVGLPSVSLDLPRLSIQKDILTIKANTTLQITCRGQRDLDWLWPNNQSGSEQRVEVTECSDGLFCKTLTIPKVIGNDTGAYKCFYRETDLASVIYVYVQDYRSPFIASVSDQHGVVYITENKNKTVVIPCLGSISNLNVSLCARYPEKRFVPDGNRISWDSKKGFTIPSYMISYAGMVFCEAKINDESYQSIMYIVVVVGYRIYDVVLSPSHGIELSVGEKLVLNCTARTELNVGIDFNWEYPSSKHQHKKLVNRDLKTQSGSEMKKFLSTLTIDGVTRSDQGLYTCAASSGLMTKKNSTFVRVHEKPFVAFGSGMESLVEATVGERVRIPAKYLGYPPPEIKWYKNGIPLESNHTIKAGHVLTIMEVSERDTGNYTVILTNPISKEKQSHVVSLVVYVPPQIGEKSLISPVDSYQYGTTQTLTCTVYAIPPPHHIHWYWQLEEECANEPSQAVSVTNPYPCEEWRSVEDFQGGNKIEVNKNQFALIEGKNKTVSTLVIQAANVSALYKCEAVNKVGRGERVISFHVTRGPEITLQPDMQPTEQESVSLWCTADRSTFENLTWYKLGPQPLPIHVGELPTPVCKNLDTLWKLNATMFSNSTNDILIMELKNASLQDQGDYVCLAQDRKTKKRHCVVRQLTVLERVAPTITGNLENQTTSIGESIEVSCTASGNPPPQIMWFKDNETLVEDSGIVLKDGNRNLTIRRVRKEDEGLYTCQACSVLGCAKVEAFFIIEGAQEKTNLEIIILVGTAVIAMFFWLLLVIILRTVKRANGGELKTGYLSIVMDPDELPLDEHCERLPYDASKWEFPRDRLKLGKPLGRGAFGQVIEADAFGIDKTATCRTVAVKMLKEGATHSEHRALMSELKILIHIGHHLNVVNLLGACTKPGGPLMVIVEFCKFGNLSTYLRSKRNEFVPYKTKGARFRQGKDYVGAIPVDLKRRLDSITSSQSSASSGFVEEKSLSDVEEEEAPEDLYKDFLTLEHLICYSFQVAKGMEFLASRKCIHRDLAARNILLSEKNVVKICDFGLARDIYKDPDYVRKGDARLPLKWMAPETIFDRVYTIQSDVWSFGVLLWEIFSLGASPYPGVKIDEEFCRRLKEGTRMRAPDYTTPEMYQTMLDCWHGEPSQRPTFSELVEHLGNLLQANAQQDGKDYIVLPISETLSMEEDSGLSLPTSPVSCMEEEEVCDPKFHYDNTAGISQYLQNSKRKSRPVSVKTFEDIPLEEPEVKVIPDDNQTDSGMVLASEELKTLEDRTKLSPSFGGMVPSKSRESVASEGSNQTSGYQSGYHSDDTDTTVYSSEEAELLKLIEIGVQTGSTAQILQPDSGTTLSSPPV
Sequence of BTK (Q06187 whole entry, species assumed): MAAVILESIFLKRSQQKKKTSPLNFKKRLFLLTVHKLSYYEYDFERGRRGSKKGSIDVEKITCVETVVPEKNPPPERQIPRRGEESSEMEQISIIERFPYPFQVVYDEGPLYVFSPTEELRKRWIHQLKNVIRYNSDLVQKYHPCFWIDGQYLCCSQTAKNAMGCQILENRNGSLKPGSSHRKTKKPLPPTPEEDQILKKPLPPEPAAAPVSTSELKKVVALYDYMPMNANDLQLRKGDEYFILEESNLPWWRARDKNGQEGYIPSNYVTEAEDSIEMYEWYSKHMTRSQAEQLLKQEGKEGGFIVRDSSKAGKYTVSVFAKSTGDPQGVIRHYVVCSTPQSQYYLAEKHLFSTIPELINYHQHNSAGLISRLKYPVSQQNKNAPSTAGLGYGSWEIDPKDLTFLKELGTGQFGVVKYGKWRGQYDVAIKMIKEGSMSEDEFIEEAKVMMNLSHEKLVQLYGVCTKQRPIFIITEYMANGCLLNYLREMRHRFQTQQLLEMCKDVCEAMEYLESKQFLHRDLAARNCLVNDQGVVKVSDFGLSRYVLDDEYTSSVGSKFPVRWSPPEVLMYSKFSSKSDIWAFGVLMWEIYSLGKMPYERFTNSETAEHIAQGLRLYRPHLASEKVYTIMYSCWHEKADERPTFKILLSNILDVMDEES
Sequence of FLT-1 (P17948 27-1338): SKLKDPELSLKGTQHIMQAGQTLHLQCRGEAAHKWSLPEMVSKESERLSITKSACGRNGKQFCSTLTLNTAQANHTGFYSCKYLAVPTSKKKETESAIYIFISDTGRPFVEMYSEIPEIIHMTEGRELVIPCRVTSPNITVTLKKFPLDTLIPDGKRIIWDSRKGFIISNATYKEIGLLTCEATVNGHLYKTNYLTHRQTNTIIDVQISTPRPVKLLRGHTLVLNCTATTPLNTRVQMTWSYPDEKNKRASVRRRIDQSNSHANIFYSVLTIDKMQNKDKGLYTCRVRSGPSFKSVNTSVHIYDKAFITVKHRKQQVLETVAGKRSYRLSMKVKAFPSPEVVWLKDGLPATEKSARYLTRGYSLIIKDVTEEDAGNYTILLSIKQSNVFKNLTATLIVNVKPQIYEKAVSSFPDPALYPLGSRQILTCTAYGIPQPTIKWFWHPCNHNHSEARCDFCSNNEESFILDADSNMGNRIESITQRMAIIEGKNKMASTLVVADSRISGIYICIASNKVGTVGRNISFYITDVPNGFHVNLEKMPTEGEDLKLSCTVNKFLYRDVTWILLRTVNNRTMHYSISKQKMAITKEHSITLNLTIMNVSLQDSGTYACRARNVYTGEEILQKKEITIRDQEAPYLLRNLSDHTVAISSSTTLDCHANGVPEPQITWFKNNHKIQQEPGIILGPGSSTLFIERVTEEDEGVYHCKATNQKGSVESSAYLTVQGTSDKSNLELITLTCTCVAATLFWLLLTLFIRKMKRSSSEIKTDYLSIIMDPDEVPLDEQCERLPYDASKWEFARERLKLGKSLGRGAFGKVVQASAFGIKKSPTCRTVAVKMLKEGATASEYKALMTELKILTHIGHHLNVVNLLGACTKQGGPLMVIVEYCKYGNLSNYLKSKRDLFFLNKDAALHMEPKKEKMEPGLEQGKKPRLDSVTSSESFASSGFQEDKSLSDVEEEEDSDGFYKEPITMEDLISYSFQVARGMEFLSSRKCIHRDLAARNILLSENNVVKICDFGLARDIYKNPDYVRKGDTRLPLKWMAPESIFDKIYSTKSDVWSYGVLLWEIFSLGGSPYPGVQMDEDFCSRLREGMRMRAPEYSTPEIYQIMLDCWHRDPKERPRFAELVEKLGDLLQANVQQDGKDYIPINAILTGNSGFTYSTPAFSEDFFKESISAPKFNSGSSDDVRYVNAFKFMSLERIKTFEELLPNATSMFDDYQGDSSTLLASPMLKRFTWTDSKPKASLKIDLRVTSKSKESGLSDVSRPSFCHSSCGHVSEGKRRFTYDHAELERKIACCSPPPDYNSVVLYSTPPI
Sequence of AXL (P30530 473-894): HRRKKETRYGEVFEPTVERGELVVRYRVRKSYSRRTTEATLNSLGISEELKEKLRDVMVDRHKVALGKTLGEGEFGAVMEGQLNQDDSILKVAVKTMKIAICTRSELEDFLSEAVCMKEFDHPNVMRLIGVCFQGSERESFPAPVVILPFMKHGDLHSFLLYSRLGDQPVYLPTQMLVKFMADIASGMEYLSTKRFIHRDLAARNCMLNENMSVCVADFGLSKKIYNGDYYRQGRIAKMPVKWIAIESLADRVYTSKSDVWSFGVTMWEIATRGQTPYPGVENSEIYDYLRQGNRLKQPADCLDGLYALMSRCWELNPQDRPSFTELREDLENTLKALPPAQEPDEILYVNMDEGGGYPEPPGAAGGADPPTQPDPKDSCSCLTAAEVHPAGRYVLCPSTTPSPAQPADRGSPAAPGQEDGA

Compound	pIC50 (HCC827)	pIC50 (A431)	pIC50 (H292)	pIC50 (PC-9)	pIC50 (A375)	pIC50 (HT-29)	pIC50 (TT)	pIC50 (HCT116)	pIC50 (SK-OV-3)	pIC50 (A549)	pIC50 (3T3swiss)	pIC50 (HUVEC)	pIC50 (Bel-7402)	pIC50 (SGC7901)	pIC50 (CFPAC-1)	pIC50 (A498)	pIC50 (Eca109)	pIC50 (RET)	pIC50 (KDR)	pIC50 (FLT-1)	also measured
COc1cc2c(Nc3ccc(F)c(Cl)c3)ncnc2cc1OCCCCN1CCCC1 [Compound 40, 4-(3-chloro-4-fluoroanilino)-6-methoxy-7-(4-(pyrrolidin-1-yl)butoxy)quinazoline]	10.00	5.81	7.25	8.11	6.61	5.63	7.03	6.22	5.92	5.62	5.74	7.91	5.23	5.43	5.27	5.61	5.26	7.76	7.73	7.40	pIC50 (FGFR-1): 7.55; pIC50 (EGFR): 6.95; pIC50 (PDGFRβ): 6.62; pIC50 (BTK): 6.51; pIC50 (AXL): 5.70; MTD [1]: 125 to 250 mg/kg
COc1cc2c(Nc3ccc(F)c(Cl)c3)ncnc2cc1OCCCN1CCCC1 [Compound 39, 4-(3-chloro-4-fluoroanilino)-6-methoxy-7-(3-(pyrrolidin-1-yl)propoxy)quinazoline]	9.70	5.65	7.34	8.18	6.71	5.54	6.73	6.29	5.88	5.57	5.76	7.73	5.25	5.34	5.28	5.64	5.24	7.99	7.72	7.46	pIC50 (FGFR-1): 7.71; pIC50 (EGFR): 6.92; pIC50 (PDGFRβ): 6.59; pIC50 (BTK): 6.53; pIC50 (AXL): 5.69; MTD [1]: 62.5 to 125 mg/kg
COc1cc2c(Nc3ccc(Br)cc3F)ncnc2cc1OCCCCN1CCCC1 [Compound 30, 4-(4-bromo-2-fluoroanilino)-6-methoxy-7-(4-(pyrrolidin-1-yl)butoxy)quinazoline]	9.30	5.80	7.36	8.15	6.71	5.66	6.90	6.11	5.60	5.82	5.83	7.56	5.34	5.38	5.29	5.54	5.26	7.84	7.80	7.59	pIC50 (FGFR-1): 7.59; pIC50 (EGFR): 6.93; pIC50 (PDGFRβ): 6.61; pIC50 (BTK): 6.58; pIC50 (AXL): 5.70; MTD [1]: 250 to 500 mg/kg
COc1cc2c(Nc3ccc(Br)cc3F)ncnc2cc1OCCCCN(C)C [Compound 28, 4-(4-bromo-2-fluoroanilino)-6-methoxy-7-(4-(dimethylamino)-butoxy)quinazoline]	10.00	5.87	7.18	8.03	6.96	5.83	6.93	6.15	5.74	5.72	5.79	7.70	5.31	5.40	5.35	5.64	5.31	7.87	7.74	7.56	pIC50 (FGFR-1): 7.75; pIC50 (EGFR): 7.04; pIC50 (PDGFRβ): 6.81; pIC50 (BTK): 6.56; pIC50 (AXL): 5.83; MTD [1]: 250 to 500 mg/kg
